Drawing on patent US20230012368A1 (Hoffmann-La Roche Inc., priority 2018, published 2023), this text covers IC90 for 28 compounds.

SMILES strings stand for the structures. Counter-ions that a name gives are not always drawn.

The first assay deals with Acinetobacter baumannii ATCC 17978. The experiment in a line: Antimicrobial susceptibility testing: 90% growth inhibitory concentration (IC90) determination. It counts as cell-based. The following applies: 90% growth inhibitory concentration; Acinetobacter baumannii ATCC17978; Iso-Sensitest broth, OD 600 nm over 16h; read-out: ATCC17978 IC90. The method in brief:
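Growth of the Acinetobacter baumannii strain was followed by optical density at 600 nm every 20 minutes for 16h at 35±2° C. Inoculum was ~5×10^(5) CFU/ml in Iso-Sensitest medium, with twofold compound dilutions (e.g. 50 to 0.097 μM final). The 90% inhibitory concentration was derived in log-phase growth.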
One may read the IC90 as the concentration needed for an effect of 90%. For `COc1ccc(-c2cnc3c(Nc4ccc(C(=O)N(C)CC5CCOCC5)c(Cl)c4)nccn23)c(F)c1F` [Example 41, 2-chloro-4-[[3-(2,3-difluoro-4-methoxy-phenyl)imidazo[1,2-a]pyrazin-8-yl]amino]-N-methyl-N-(tetrahydropyran-4-ylmethyl)benzamide; 2,2,2-trifluoroacetic acid], the IC90 stood at 620 nM.

Turning to `Cc1cc(Nc2nccn3c(-c4ccc(Cl)cc4)cnc23)ccc1C(=O)N(C)CCC1CCNCC1` [Example 88, 4-((3-(4-chlorophenyl)imidazo [1,2-a]pyrazin-8-yl)amino)-N,2-dimethyl-N-(2-(piperidin-4-yl)ethyl)benzamide hydrochloride], the IC90 was determined as 250 nM.

Regarding `COc1ccc(-c2cnc3c(Nc4ccc(C(=O)NCCCN)c(C(F)F)c4)nccn23)c(F)c1F` [Example 165, N-(3-aminopropyl)-4-[[3-(2,3-difluoro-4-methoxy-phenyl)imidazo[1,2-a]pyrazin-8-yl]amino]-2-(difluoromethyl)benzamide; formic acid], the IC90 was found to be 530 nM.

Staying with this assay, now noted: Acinetobacter baumannii, ATCC17978, 16 h, 90% growth inhibitory concentration; Acinetobacter baumannii ATCC17978; Iso-Sensitest broth, OD 600 nm over 16h; read-out: ATCC17978 IC90.
Regarding `CCc1cc(Nc2nccn3c(-c4ccc(OC)c(F)c4F)cnc23)ccc1C(=O)NC[C@H]1CCNC1` [Example 530, (S)-4-((3-(2,3-difluoro-4-methoxyphenyl)imidazo[1,2-a]pyrazin-8-yl)amino)-2-ethyl-N-(pyrrolidin-3-ylmethyl)benzamide hydrochloride], the IC90 was 110 nM.

Consider `CCc1cc(Nc2nccn3c(-c4ccc(OC)c(F)c4F)cnc23)ccc1C(=O)NCC1CN(C)C1` [Example 297, 4-[[3-(2,3-difluoro-4-methoxyphenyl)imidazo[1,2-a]pyrazin-8-yl]amino]-2-ethyl-N-[(1-methylazetidin-3-yl)methyl]benzamide], for which the 90% effect concentration (IC90) stood at 150 nM.

Turning to `CCc1cc(Nc2nccn3c(-c4ccc(OC)c(F)c4F)cnc23)ccc1C(=O)N[C@@H](C)CNC(=N)C(C)C` [Example 503, 4-[[3-(2,3-difluoro-4-methoxyphenyl)imidazo[1,2-a]pyrazin-8-yl]amino]-2-ethyl-#N!-[(2#S!)-1-(2-methylpropanimidoylamino)propan-2-yl]benzamide], the IC90 was 450 nM.

Take `CCc1cc(Nc2nccn3c(-c4ccc(OC)c(F)c4F)cnc23)ccc1C(=O)NCC(=O)N1CCN[C@H](CO)C1` [Example 464, 4-[[3-(2,3-difluoro-4-methoxy-phenyl)imidazo[1,2-a]pyrazin-8-yl]amino]-2-ethyl-N-[2-[(3S)-3-(hydroxymethyl)piperazin-1-yl]-2-oxo-ethyl]benzamide]: the IC90 worked out at 240 nM.

For `Cc1cc(Nc2nccn3c(-c4ccc(OC(F)F)cc4)cnc23)ccc1C(=O)NCCCCN1CCOCC1` [Example 197, 4-[[3-[4-(difluoromethoxy)phenyl]im-idazo[1,2-a]pyrazin-8-yl]amino]-2-methyl-N-(4-morpholin-4-ylbutyl)benzamide], the IC90 came out at 400 nM.

For the compound `COc1ccc(-c2cnc3c(Nc4ccc(C(=O)N(C)CCO)c(C)c4)nccn23)cc1` [Example 19, N-(2-hydroxyethyl)-4-((3-(4-methoxyphenyl)imidazo [1,2-a]pyrazin-8-yl)amino)-N,2-dimethylbenzamide], the IC90 was found to be 690 nM.

Consider `Cc1cc(Nc2nccn3c(-c4ccc(Cl)c(F)c4F)cnc23)ccc1C(=O)NCCCN` [Example 214, N-(3-aminopropyl)-4-[[3-(4-chloro-2,3-difluorophenyl)imidazo[1,2-a]pyrazin-8-yl]amino]-2-methylbenzamide;hydrochlo-ride], for which the IC90 was 690 nM.

For the compound `CCc1cc(Nc2nccn3c(-c4ccc(OC)c(F)c4F)cnc23)ccc1C(=O)NCCNC(=O)CCCN` [Example 360, N-[2-(4-aminobutanoylamino)ethyl]-4-[[3-(2,3-difluoro-4-methoxyphenyl)imidazo[1,2-a]pyrazin-8-yl]amino]-2-ethylbenzamide], the IC90 worked out at 70 nM.

As for `CCc1cc(Nc2nccn3c(-c4ccc(Oc5ccccn5)c(F)c4F)cnc23)ccc1C(=O)NCCCCCC(=O)N1CCN[C@H](CO)C1` [Example 478, 4-[[3-[2,3-difluoro-4-(2-pyridyloxy)phenyl]imidazo [1,2-a]pyrazin-8-yl]amino]-2-ethyl-N-[6-[(3S)-3-(hydroxymethyl)piperazin-1-yl]-6-oxo-hexyl]benzamide], the IC90 is 380 nM.

Take `COc1ccc(-c2cnc3c(Nc4ccc(C(=O)N(C)CCN(C)C)c(C)c4)nccn23)cc1` [Example 18, N-(2-(dimethylamino)ethyl)-4-((3-(4-methoxyphenyl)imidazo [1,2-a]pyrazin-8-yl)amino)-N,2-dimethylbenzamide]: the IC90 worked out at 2200 nM.

Take `CCc1cc(Nc2nccn3c(-c4ccc(OC(F)F)cc4)cnc23)ccc1C(=O)NC` [Example 183, 4-[[3-[4-(difluoromethoxy)phenyl]im-idazo[1,2-a]pyrazin-8-yl]amino]-2-ethyl-N-methylbenzamide]: the IC90 was determined as 190 nM.

As for `CCc1cc(Nc2nccn3c(-c4ccc(OC)c(F)c4F)cnc23)ccc1C(=O)NCC(C)CNC(=O)[C@@H](N)CNC(=N)N` (mixture of isomers) [Example 408, rac-N-(3-((R)-2-amino-3-guanidinopropanamido)-2-methylpropyl)-4-((3-(2,3-difluoro-4-methoxyphenyl)imidazo[1,2-a]pyrazin-8-yl)amino)-2-ethylbenzamide diformate], the IC90 is 410 nM.

Turning to `CCc1cc(Nc2nccn3c(-c4ccc(Oc5ncccn5)c(F)c4F)cnc23)ccc1C(=O)NCC1CCNCC1` [Example 548, 4-((3-(2,3-difluoro-4-(pyrimidin-2-yloxy)phenyl)imidazo[1,2-a]pyrazin-8-yl)amino)-2-ethyl-N-(piperidin-4-ylmethyl)benzamide formate], the IC90 was found to be 470 nM.

In the case of `CNC(=O)c1ccc(Nc2nccn3c(-c4ccc(OC)cc4)cnc23)cc1C` [Example 14, 4-((3-(4-methoxyphenyl)imidazo [1,2-a]pyrazin-8-yl)amino)-N,2-dimethylbenzamide], the IC90 was 120 nM.

With `CCN(CC)C(=O)c1ccc(Nc2nccn3c(-c4ccc(OC)cc4)cnc23)cc1C` [Example 220, N,N-diethyl-4-[[3-(4-methoxyphenyl)imidazo[1,2-a]pyrazin-8-yl]amino]-2-methylbenzamide], the IC90 is 1200 nM.

For `CCN(C(=O)NCCCN(C)C)C(=O)c1ccc(Nc2nccn3c(-c4ccc(OCC#N)c(F)c4F)cnc23)cc1Cl` [REF 149, 2-chloro-4-[[3-[4-(cyanomethoxy)-2,3-difluoro-phenyl]imidazo[1,2-a]pyrazin-8-yl]amino]-N-[3-(dimethylamino)propylcarbamoyl]-N-ethyl-benzamide], the IC90 came out at 450 nM.

Turning to `COc1ccc(-c2cnc3c(Nc4ccc(C(=O)NCCCN5CCS(=O)(=O)CC5)c(C)c4)nccn23)cc1F` [Example 36, N-[3-(1,1-dioxo-1,4-thiazinan-4-yl)propyl]-4-[[3-(3-fluoro-4-methoxy-phenyl)imidazo[1,2-a]pyrazin-8-yl]amino]-2-methyl-benzamide; 2,2,2-trifluoroacetic acid], the IC90 turned out to be 460 nM.

For the compound `COc1ccc(-c2cnc3c(Nc4ccc(C(=O)N[C@@H](C)CN)c(C)c4)nccn23)c(F)c1F` [Example 508, #N!-[(2#S!)-1-aminopropan-2-yl]-4-[[3-(2,3-difluoro-4-methoxyphenyl)imidazo[1,2-a]pyrazin-8-yl]amino]-2-methylbenzamide;dihydrochlo-ride], the IC90 was determined as 320 nM.

Consider `CCc1cc(Nc2nccn3c(-c4ccc(OC)c(F)c4F)cnc23)ccc1C(=O)NCCNC(=O)CCN` [Example 364, N-[2-(3-aminopropanoylamino)ethyl]-4-[[3-(2,3-difluoro-4-methoxyphenyl)imidazo[1,2-a]pyrazin-8-yl]amino]-2-ethylbenzamide], for which the 90% effect concentration (IC90) was found to be 90 nM.

Consider `CNC(=O)c1ccc(Nc2nccn3c(-c4ccc(OC(F)F)cc4)cnc23)cc1Cl` [Example 110, 2-chloro-4-((3-(4-(difluoromethoxy)phenyl)imidazo[1,2-a]pyrazin-8-yl)amino)-N-methylbenzamide], for which the IC90 was 250 nM.

Take `CNC(=O)c1ccc(Nc2nccn3c(-c4ccc(OC(F)F)cc4)cnc23)cc1CCO` [Example 190, 4-[[3-[4-(difluoromethoxy)phenyl]im-idazo[1,2-a]pyrazin-8-yl]amino]-2-(2-hydroxyethyl)-N-methylbenzamide]: the IC90 was found to be 330 nM.

Take `COc1ccc(-c2cnc3c(Nc4ccc(C(=O)N(C)CCc5ncc[nH]5)c(C)c4)nccn23)cc1F` [Example 112, 4-[[3-(3-fluoro-4-methoxy-phenyl)imidazo[1,2-a]pyrazin-8-yl]amino]-N-[2-(1H-imidazol-2-yl)ethyl]-N,2-dimethyl-benzamide]: the IC90 was 960 nM.

As to `CCc1cc(Nc2nccn3c(-c4ccc(OC)c(F)c4F)cnc23)ccc1C(=O)NCCNC(=O)[C@@H](N)CCN` [Example 399, N-[2-[[(2S)-2,4-diaminobutanoyl]amino]ethyl]-4-[[3-(2,3-difluoro-4-methoxy-phenyl)imidazo[1,2-a]pyrazin-8-yl]amino]-2-ethyl-benzamide; formic acid], the IC90 was determined as 380 nM.

For `Cc1cc(Nc2nccn3c(-c4ccc(OC(F)F)cc4)cnc23)ccc1C(=O)N1CCC(C(=O)NC[C@H](O)[C@@H](O)[C@H](O)[C@H](O)CO)CC1` [Example 306, 1-[4-[[3-[4-(difluoromethoxy)phenyl]im-idazo[1,2-a]pyrazin-8-yl]amino]-2-methylbenzoyl]-N-[(2S,3R,4R,5R)-2,3,4,5,6-pentahydroxyhexyl]piperidine-4-carboxamide], the IC90 was found to be 590 nM.

Regarding `CCc1cc(Nc2nccn3c(-c4ccc(OC)c(F)c4F)cnc23)ccc1C(=O)NCCNC(=O)NCCCN` [Example 335, N-[2-(3-aminopropylcarbamoylamino)ethyl]-4-[[3-(2,3-difluoro-4-methoxyphenyl)imidazo[1,2-a]pyrazin-8-yl]amino]-2-ethylbenzamide], the IC90 turned out to be 430 nM.
